“Also recorded” adds a separate entry of the source. One block for each molecule: values may come before it.
Assays:
[1] = target: T1, LINE1 reverse transcriptase (Homo sapiens, UniProt O00370); test: Homogeneous time-resolved fluorescence (HTRF) LINE1 RT assay; type: biochemical; design: recombinant MBP-tagged LINE1 protein (238-1061); MBP; made in house; settings: recombinant MBP-tagged LINE1 protein (238-1061), read-out: IC50, inhibition of LINE1 reverse transcriptase
Experimental: The LINE1 reverse transcriptase homogeneous time-resolved fluorescence (HTRF) assay was performed with recombinant MBP-tagged LINE1 protein (238-1061) (generated and purified according to procedures in Dai L. et al. BMC Biochemistry 2011; 12:18) in a 384-well format. Test compound was serially diluted in DMSO and further diluted in the assay buffer (50 mM Tris-HCl, 50 mM KCl, 10 mM MgCl2, 10 mM DTT, pH 8.1) to achieve a final DMSO concentration of 1%. The serially diluted compound was mixed with 64 ng/well of LINE1 enzyme, 5 nM of pre-annealed template/biotin-primer pair (synthesized at Generay Biotechnology), 10 nM of Fluorescein-12-dATP fluorescent probe (Perkin Elmer), and 1 μM dGTP/dCTP/dTTP (Thermo Fisher Scientific) in the assay buffer. The template/biotin-primer sequences were as follows:
After incubating at 25° C. for 60 minutes, the detection reagent (20 mM EDTA with streptavidin-terbium cryptate, Cisbio Bioassay) in the PPI buffer (Cisbio Bioassay) was added, and the mixture was incubated at 25° C. for 30 minutes. At the end of the incubation, fluorescence was read at ex/em=337/485 nm and ex/em=337/520 nm on an Envision 2104 plate reader (Perkin Elmer). The fluorescence ratio at 520/485 nm was used for the calculation. […] The IC50 was calculated by fitting the compound dose inhibition curve with a 4-parameter non-linear regression equation.

[2] = target: T2, HERV-K reverse transcriptase (Homo sapiens, UniProt V9H0F6); test: Homogeneous time-resolved fluorescence (HTRF) HERV-K RT assay; type: biochemical; settings: HERV-K reverse transcriptase (2-596)-8His protein, read-out: IC50, inhibition of HERV-K reverse transcriptase
T2 construct: fused on or other part: C-terminal 8His tag
T2 sequence (V9H0F6 entry or part of it): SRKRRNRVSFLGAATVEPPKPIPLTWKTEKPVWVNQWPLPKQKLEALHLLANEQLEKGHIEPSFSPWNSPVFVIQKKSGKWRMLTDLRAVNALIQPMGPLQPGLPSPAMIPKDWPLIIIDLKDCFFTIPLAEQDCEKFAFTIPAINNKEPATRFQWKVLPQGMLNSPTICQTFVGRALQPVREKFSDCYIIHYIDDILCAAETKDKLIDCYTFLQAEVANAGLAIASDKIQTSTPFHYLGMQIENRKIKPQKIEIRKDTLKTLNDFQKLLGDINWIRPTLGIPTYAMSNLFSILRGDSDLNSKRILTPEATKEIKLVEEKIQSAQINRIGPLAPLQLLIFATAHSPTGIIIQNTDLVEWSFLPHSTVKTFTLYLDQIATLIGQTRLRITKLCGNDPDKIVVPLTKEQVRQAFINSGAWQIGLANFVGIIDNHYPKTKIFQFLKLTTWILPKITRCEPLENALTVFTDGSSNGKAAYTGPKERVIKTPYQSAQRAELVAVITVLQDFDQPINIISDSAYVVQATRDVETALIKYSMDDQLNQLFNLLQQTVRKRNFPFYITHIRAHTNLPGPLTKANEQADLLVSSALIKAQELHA
Experimental: The HERV-K reverse transcriptase homogeneous time-resolved fluorescence (HTRF) assay was performed in a 384-well format with HERV-K reverse transcriptase (2-596)-8His protein. Baculoviruses were created using Bac-to-Bac technology (Invitrogen). pFastBac donor plasmids containing HERV-K reverse transcriptase sequence (NCBI GenBank number AAC63291.1, J. Virology (1999) Vol. 73, No. 3, pp. 2365-2375) were transformed into DH10 Bac cells following the manufacturer's instructions. Recombinant bacmids were then isolated clonally and transfected into SF9 cells with lipofectin. HERV-K reverse transcriptase was expressed in the SF9 insect cells and then purified using immobilized metal affinity chromatography (IMAC) followed by size-exclusion chromatography (SEC). Test compound was serially diluted in DMSO and further diluted in the assay buffer (50 mM Tris-HCl, 50 mM KCl, 10 mM MgCl2, 10 mM DTT, pH 8.1) to achieve a final DMSO concentration of 1%. […] At the end of the incubation, fluorescence was read at ex/em=337/485 nm and ex/em=337/520 nm on an Envision 2104 plate reader (Perkin Elmer). The fluorescence ratio at 520/485 nm was used for the calculation. […] The IC50 was calculated by fitting the compound dose inhibition curve with a 4-parameter non-linear regression equation.

IL-17A, IFN, TNF = test: Mouse MOG study: lymph node cell culture and CBA cytokine analysis; type: in vivo, C57BL mice
Experimental: (§1) On day zero, four groups of six C57BL mice were immunized subcutaneously at 2 sites with 0.1 mL/site with MOG35-55/CFA (Hooke immunization kit). Dosing of mice started on day 0 and continued through day 11. The dosing schedule was:
(§2) The Vehicle used was 0.5% methylcellulose. Mice were dosed each day at approximately the same time each day. One day 11, 1 hour after receiving the last dose, plasma was collected, frozen and stored at −80° C. for analysis. At the end of the experiment, all mice were euthanized, and inguinal lymph nodes were collected and processed.
Lymph node cells from each group were set up in 96-well plates with 400k cells/well along with seven concentrations of antigen: 0, 0.07 μg/mL, 0.2 μg/mL, 0.7 μg/mL, 2.2 μg/mL, 6.6 μg/mL and 20.0 μg/mL. After 72 hours of culturing, the supernatants were collected and analyzed for IL-17A, IFN […] , and TNF using CBA kits (Becton-Dickinson).

CD4+ T cells = test: Mouse MOG study: BrdU cell proliferation assay on lymph node cells; type: in vivo, C57BL mice
Experimental: as §1, §2
A bromodeoxyuridine (BrdU) cell proliferation assay was run on some of the lymph node cells to determine if treatment of mice with censavudine altered the proliferation of CD4+ T cells in culture upon restimulation with antigen. Cultures of the cells were set up in 96-well plates, each using 400k cells/well along with six concentrations of antigen: 0, 0.2 μg/mL, 0.7 μg/mL, 2.2 μg/mL, 6.6 μg/mL and 20.0 μg/mL, each with duplicates. The cells were cultured for approximately 40 hours, then BrdU was added to all wells at a concentration of 3 μg/mL. The cells were cultured an additional 3 hours after the addition of BrdU. Cells were then collected, stained with anti-CD4 and anti-BrdU antibodies (as per Becton Dickinson's standard protocols for BrdU labeling) and analyzed.

Type 1 Interferon = test: Cellular assay for inhibiting IFN production in THP1 TREX1 KO cells; type: cell-based; settings: THP1-Dual KO-TREX1 cells, six days of treatment, alone or with 1 μM 5-Aza-2'-Deoxycytidine; FIG. 2
Experimental: THP1 Dual TREX1 KO cells were purchased from Invivogen.
Stock solution of censavudine was prepared in DMSO followed by a three-fold dilution in DMSO. Additional 50× dilution was prepared in cell culture media for each dilution. 10 μL of diluted censavudine was then added to a 96 well plate.
THP1-Dual™ KO-TREX1 cells were treated with either 1×PBS or 1 μM 5-Aza-2′-Deoxycytidine. 190 μL of the THP1-Dual™ KO-TREX1 cells from either treatment were added to each well of the 96-well plate containing censavudine titration at 50,000 cells/well. Cells were incubated at 37° C., 5% CO2 in a humidified incubator for six days. Cells treated with 1 μM 5-Aza-2′-Deoxycytidine were added at the same density as above and incubated at 37° C., 5% CO2 in a humidified incubator for six days. On day six, 25 μL of cell supernatant was transferred to a 96 well white-walled plate, followed by addition of 50 μL of QUANTI-LUC solution containing stabilizer to each well.

[3] = target: T1, LINE1 reverse transcriptase; test: Stable artificial-intron Cis LINE1 reporter assay; type: cell-based; design: expressed in transfected cells; settings: HeLa L1 artificial-intron reporter cells, doxycycline induced, 72 h, Firefly luciferase; read-out: IC50, inhibition of LINE1 reverse transcriptase
From the text: A stable HeLa Tet-On 3G (Takara, cat no 631183) cell line expressing a bi-directional inducible LINE1 construct was generated as described in Xie, Y. et al. “Cell division promotes efficient retrotransposition in a stable L1 reporter cell line,” Mobile DNA (2013) 4:10. Single cell clones were screened for high Luciferase expression and the highest expression Firefly expressing clone was chosen for compound testing.
Test compound was serially diluted in DMSO and spotted in 96-well plates. Subsequently the HeLa L1 artifical-intron reporter cells were plated into the compound-containing wells (8,000 cells/well), and the cells were induced for reporter expression with doxycycline (Sigma cat no D9891) at a final concentration of 500 ng/mL. Luminescence was measured 72 h after plating using the Dual-Glo Luciferase Assay System (Promega cat no E2940) following the manufacturer's instructions. The Firefly Luciferase activity was used to report LINE1 activity.

[4] = target: T1, LINE1 reverse transcriptase; test: Transient artificial-intron Cis LINE1 reporter assay; type: cell-based; design: expressed in transfected cells; settings: HEK 293 cells; ratio of FLuc to RLuc reports LINE1 activity; read-out: IC50, inhibition of FLuc (FF/RR)
Experimental: Intron-disrupted Firefly luciferase (FLuc) expression cassettes were generated as described by Xie, Y. et al. “Characterization of L1 retrotransposition with high-throughput dual-luciferase assays,” Nucleic Acid Res. (2011) Vol. 39, No. 3, e16. In addition, the plasmid contained an intact Renilla luciferase (RLuc) expression cassette on the vector backbone, in order to normalize transfection efficiency and measure potential cell toxicity.
HEK 293 cells were seeded in 96-well plates at 1,000 cells/well in 55 μL and grown for 24 hours. Cells were transfected with FuGeneHD (Promega) following the manufacturer's protocol. Each well received 0.133 ng plasmid, 0.4 μL FuGeneHD reagent, and 4.5 μL GlutaMAX-I-supplemented Opti-MEM I reduced-serum medium (Invitrogen). Cells were simultaneously treated with test compound serially diluted starting at 100 μM in a 3-fold dilution dose response.
Luminescence was measured using the Dual-Glo Luciferase Assay System (Promega) following the manufacturer's instructions. The ratio between FLuc and RLuc gene expression was used to report LINE1 activity.

Experimental for THP1-Dual KO-TREX1 cells: The THP1-Dual™ KO-TREX1 cells were cultured in RPMI 1640, 10% heat-inactivated fetal bovine serum, 25 mM HEPES, 10 μg/mL Blasticidin, and 100 μg/mL Zeocin. THP1-Dual™ KO-TREX1 cells were treated with a dose titration of censavudine alone or in the presence of 1 μM 5-Aza-2′-Deoxycytidine (Sigma, cat #189825). Type 1 Interferon and cell viability were assessed after six days of treatment.
The remaining cells were assessed for cell viability by adding 25 μL of CellTiter-Glo (Promega, G9683) solution to each well, placed on a shaker for 10 minutes at room temperature. Luminescence was detected on a plate reader, according to manufacturer's instructions.

IC50 [1]: 70 nM | IC50 [2]: 6.4 µM
Compound: C#C[C@@]1(COP(=O)(O)OP(=O)(O)OP(=O)(O)O)C=C[C@H](n2cc(C)c(=O)[nH]c2=O)O1

Compound: C#C[C@@]1(CO)C=C[C@H](n2cc(C)c(=O)[nH]c2=O)O1 [censavudine, 1-[(2R,5R)-5-ethynyl-5-(hydroxymethyl)-2H-furan-2-yl]-5-methylpyrimidine-2,4-dione]
IL-17A level (IL-17A, IFN, TNF; MOG35-55/CFA immunized mice, QD p.o. day 0-11, lymph node cells restimulated with antigen 72 h, FIG. 4A): reduce levels; also recorded: reduction of IL17A | TNF level (IL-17A, IFN, TNF; MOG35-55/CFA immunized mice, QD p.o. day 0-11, lymph node cells restimulated with antigen 72 h, FIG. 4B): reduce levels; also recorded: reduction of TNF | IFN level (IL-17A, IFN, TNF; MOG35-55/CFA immunized mice, QD p.o. day 0-11, lymph node cells restimulated with antigen 72 h, FIG. 4C): reduce levels; also recorded: reduction of IFN | proinflammatory cytokines (IL17A, TNF, IFN), effect (IL-17A, IFN, TNF; all doses (8, 40, 200 mg/kg QD p.o.), FIGS. 4A-4C): some effect | proinflammatory cytokines (IL17A, TNF, IFN), response (IL-17A, IFN, TNF; doses of 40 mg/kg and 200 mg/kg, FIGS. 4A-4C): best responses | cell viability / cell death (THP1-Dual KO-TREX1 cells): does not lead to cell death | T cell proliferation (CD4+ T cells; MOG immunized mice, QD p.o. day 0-11, lymph node cells restimulated with antigen, BrdU, FIG. 3A): reduce levels; also recorded: reduction of T-cell proliferation | Th17 (T17) (CD4+ T cells; MOG immunized mice, various doses QD p.o., FIG. 3B): reduce levels; also recorded: reduction of the cytokine Th17 | Th1 (T1) (CD4+ T cells; MOG immunized mice, various doses QD p.o., FIG. 3C): reduce levels; also recorded: reduction of the cytokine Th1 | autoreactive T-cell responses (CD4+ T cells; doses between 40 mg/kg and 200 mg/kg, FIGS. 3A-3C): significant reduction | interferon (Type 1 Interferon reporter) (Type 1 Interferon): significant reduction of interferon; also recorded: inhibition of interferon

Compound: C#C[C@@]1(CO)C=C[C@H](n2cc(C)c(=O)[nH]c2=O)O1 [drawing 16]
IC50 [3]: 130 nM | IC50 [4]: 60 nM
